Source: patent US9114171B2, “Racecadotril liquid compositions” (McNeil-PPC, Inc., priority 2012, dated 2015)

Test: Stability of Racecadotril in Beta-HPCD at 40° C., pH 3.6/4.0/4.5 (HPLC)
Assay type: physicochemical
Details: Acetate
Experimental: Test Methods Sample Preparation: • 1. Pipet 1 mL of Racecadotril solution into a 100 mL volumetric flask (V.F.) • 2. Dilute to volume with the same buffer used in the solution preparation. • 3. Further dilute the sample solution to about 0.1 mg/mL if necessary. […] Parameters may be modified to optimize chromatography. • The assay of Racecadotril is determined by using the external standard injected. The degradation products levels are determined by % peak area relative to the Racecadotril peak. Chromatographic Conditions (European Pharmacopoeia Racecadotril Method): [table] Gradient Table: [table] Mobil Phase A: Phosphate buffer, pH 2.5 (Buffer prep: dissolve 1 g of potassium dihydrogen phosphate in water, adjust to pH 2.5 with phosphoric acid, dilute to 1000 mL with water) Mobil Phase B: 100% Acetonitrile Stability of Racecadotril in Beta-Hydroxypropyl-Cyclodextrin (Beta-HPCD) at 40° C.

For `CC(=O)SCC(Cc1ccccc1)C(=O)NCC(=O)OCc1ccccc1` (racemic) [Racecadotril], the “Benz Alcohol” value (pH 3.6, 40° C., 1 week) was 0.69%, the “Impurity C” value (pH 3.6, 40° C., 1 week) was 0.93% and the “Impurity G” value (pH 3.6, 40° C., 1 week) was 1.17%. The RAC (pH 3.6, 40° C., 1 week) was 97.21%, the Thiorphan (pH 3.6, 40° C., 1 week) was 0.00% and the “Benz Alcohol” value (pH 3.6, 40° C., 2 week) was 1.40%. For the same compound, the “Impurity C” value (pH 3.6, 40° C., 2 week) was 1.87%, the “Impurity G” value (pH 3.6, 40° C., 2 week) was 1.74% and the RAC (pH 3.6, 40° C., 2 week) was 94.88%. The Thiorphan (pH 3.6, 40° C., 2 week) was 0.11%, the “Benz Alcohol” value (pH 3.6, 40° C., 3 week) was 2.13% and the “Impurity C” value (pH 3.6, 40° C., 3 week) was 2.78%. For the same compound, the “Impurity G” value (pH 3.6, 40° C., 3 week) was 1.93%, the RAC (pH 3.6, 40° C., 3 week) was 93.01% and the Thiorphan (pH 3.6, 40° C., 3 week) was 0.14%. For the same compound, the “Benz Alcohol” value (pH 3.6, 40° C., 4 week) was 2.84%, the “Impurity C” value (pH 3.6, 40° C., 4 week) was 3.56% and the “Impurity G” value (pH 3.6, 40° C., 4 week) was 3.00%. For the same compound, the RAC (pH 3.6, 40° C., 4 week) was 90.15%, the Thiorphan (pH 3.6, 40° C., 4 week) was 0.30% and the “Benz Alcohol” value (pH 3.6, 40° C., 6 week) was 4.33%. For the same compound, the “Impurity C” value (pH 3.6, 40° C., 6 week) was 5.17%, the “Impurity G” value (pH 3.6, 40° C., 6 week) was 3.82% and the RAC (pH 3.6, 40° C., 6 week) was 85.75%. The Thiorphan (pH 3.6, 40° C., 6 week) was 0.57%, the “Benz Alcohol” value (pH 3.6, 40° C., 8 week) was 5.78% and the “Impurity C” value (pH 3.6, 40° C., 8 week) was 6.33%. The “Impurity G” value (pH 3.6, 40° C., 8 week) was 5.28%, the RAC (pH 3.6, 40° C., 8 week) was 80.68% and the Thiorphan (pH 3.6, 40° C., 8 week) was 1.00%. The “Benz Alcohol” value (pH 3.6, 40° C., Initial) was 0.00%, the “Impurity C” value (pH 3.6, 40° C., Initial) was 0.00% and the “Impurity G” value (pH 3.6, 40° C., Initial) was 0.07%. For the same compound, the RAC (pH 3.6, 40° C., Initial) was 99.93%, the Thiorphan (pH 3.6, 40° C., Initial) was 0.00% and the “Benz Alcohol” value (pH 4.0, 40° C., 1 week) was 0.70%. The “Impurity C” value (pH 4.0, 40° C., 1 week) was 0.93%, the “Impurity G” value (pH 4.0, 40° C., 1 week) was 1.36% and the RAC (pH 4.0, 40° C., 1 week) was 97.01%. For the same compound, the Thiorphan (pH 4.0, 40° C., 1 week) was 0.00%, the “Benz Alcohol” value (pH 4.0, 40° C., 2 week) was 1.39% and the “Impurity C” value (pH 4.0, 40° C., 2 week) was 1.82%. For the same compound, the “Impurity G” value (pH 4.0, 40° C., 2 week) was 1.70%, the RAC (pH 4.0, 40° C., 2 week) was 95.02% and the Thiorphan (pH 4.0, 40° C., 2 week) was 0.07%. For the same compound, the “Benz Alcohol” value (pH 4.0, 40° C., 3 week) was 2.09%, the “Impurity C” value (pH 4.0, 40° C., 3 week) was 2.83% and the “Impurity G” value (pH 4.0, 40° C., 3 week) was 2.66%. The RAC (pH 4.0, 40° C., 3 week) was 92.23%, the Thiorphan (pH 4.0, 40° C., 3 week) was 0.19% and the “Benz Alcohol” value (pH 4.0, 40° C., 4 week) was 2.84%. The “Impurity C” value (pH 4.0, 40° C., 4 week) was 3.52%, the “Impurity G” value (pH 4.0, 40° C., 4 week) was 3.62% and the RAC (pH 4.0, 40° C., 4 week) was 89.50%. The Thiorphan (pH 4.0, 40° C., 4 week) was 0.38%, the “Benz Alcohol” value (pH 4.0, 40° C., 6 week) was 4.28% and the “Impurity C” value (pH 4.0, 40° C., 6 week) was 5.16%. For the same compound, the “Impurity G” value (pH 4.0, 40° C., 6 week) was 5.67%, the RAC (pH 4.0, 40° C., 6 week) was 83.98% and the Thiorphan (pH 4.0, 40° C., 6 week) was 0.71%. For the same compound, the “Benz Alcohol” value (pH 4.0, 40° C., 8 week) was 5.37%, the “Impurity C” value (pH 4.0, 40° C., 8 week) was 6.20% and the “Impurity G” value (pH 4.0, 40° C., 8 week) was 8.46%. For the same compound, the RAC (pH 4.0, 40° C., 8 week) was 78.53%, the Thiorphan (pH 4.0, 40° C., 8 week) was 1.19% and the “Benz Alcohol” value (pH 4.0, 40° C., Initial) was 0.00%. For the same compound, the “Impurity C” value (pH 4.0, 40° C., Initial) was 0.00%, the “Impurity G” value (pH 4.0, 40° C., Initial) was 0.00% and the RAC (pH 4.0, 40° C., Initial) was 100.00%. For the same compound, the Thiorphan (pH 4.0, 40° C., Initial) was 0.00%, the “Benz Alcohol” value (pH 4.5, 40° C., 1 week) was 0.02% and the “Impurity C” value (pH 4.5, 40° C., 1 week) was 0.21%. For the same compound, the “Impurity G” value (pH 4.5, 40° C., 1 week) was 3.17%, the RAC (pH 4.5, 40° C., 1 week) was 96.33% and the Thiorphan (pH 4.5, 40° C., 1 week) was 0.02%. For the same compound, the “Benz Alcohol” value (pH 4.5, 40° C., 2 week) was 0.40%, the “Impurity C” value (pH 4.5, 40° C., 2 week) was 0.40% and the “Impurity G” value (pH 4.5, 40° C., 2 week) was 6.50%. For the same compound, the RAC (pH 4.5, 40° C., 2 week) was 92.61%, the Thiorphan (pH 4.5, 40° C., 2 week) was 0.04% and the “Benz Alcohol” value (pH 4.5, 40° C., 3 week) was 0.59%. For the same compound, the “Impurity C” value (pH 4.5, 40° C., 3 week) was 0.58%, the “Impurity G” value (pH 4.5, 40° C., 3 week) was 9.43% and the RAC (pH 4.5, 40° C., 3 week) was 89.29%. For the same compound, the Thiorphan (pH 4.5, 40° C., 3 week) was 0.06%, the “Benz Alcohol” value (pH 4.5, 40° C., 4 week) was 0.79% and the “Impurity C” value (pH 4.5, 40° C., 4 week) was 0.72%. For the same compound, the “Impurity G” value (pH 4.5, 40° C., 4 week) was 11.84%, the RAC (pH 4.5, 40° C., 4 week) was 86.50% and the Thiorphan (pH 4.5, 40° C., 4 week) was 0.11%. For the same compound, the “Benz Alcohol” value (pH 4.5, 40° C., 6 week) was 1.14%, the “Impurity C” value (pH 4.5, 40° C., 6 week) was 1.04% and the “Impurity G” value (pH 4.5, 40° C., 6 week) was 17.32%. For the same compound, the RAC (pH 4.5, 40° C., 6 week) was 80.25%, the Thiorphan (pH 4.5, 40° C., 6 week) was 0.20% and the “Benz Alcohol” value (pH 4.5, 40° C., 8 week) was 1.51%. For the same compound, the “Impurity C” value (pH 4.5, 40° C., 8 week) was 1.25%, the “Impurity G” value (pH 4.5, 40° C., 8 week) was 21.73% and the RAC (pH 4.5, 40° C., 8 week) was 75.06%. For the same compound, the Thiorphan (pH 4.5, 40° C., 8 week) was 0.36%, the “Benz Alcohol” value (pH 4.5, 40° C., Initial) was 0.02% and the “Impurity C” value (pH 4.5, 40° C., Initial) was 0.02%. The “Impurity G” value (pH 4.5, 40° C., Initial) was 0.21%, the RAC (pH 4.5, 40° C., Initial) was 99.68% and the Thiorphan (pH 4.5, 40° C., Initial) was 0.01%.
